Measurements from ChEMBL document CHEMBL4270577, “Synthesis, anticancer activity and molecular modeling studies of 1,2,4-triazole derivatives as EGFR inhibitors” (Eur J Med Chem, 2018).

System: SK-MEL-5
Test: Growth inhibition of human SK-MEL-5 cells at 10 uM incubated for 48 hrs by sulforhodamine B assay relative to control
Format: functional
Conditions: SK-MEL-5, 48 h, read-out: GI

Row | Compound | inhibition of growth at 10 µM [%]
1 | COc1cc(-c2nc3sc(-c4ccccc4)cn3n2)cc(OC)c1OC | 41

System: OVCAR-4
Test: Growth inhibition of human OVCAR4 cells at 10 uM incubated for 48 hrs by sulforhodamine B assay relative to control
Format: functional
Conditions: OVCAR-4, 48 h, read-out: GI

Row | Compound | inhibition of growth at 10 µM [%]
2 | COc1cc(-c2nc3sc(-c4ccccc4)cn3n2)cc(OC)c1OC | 17

System: T47D
Test: Growth inhibition of human T47D cells at 10 uM incubated for 48 hrs by sulforhodamine B assay relative to control
Format: functional
Conditions: read-out: GI

Row | Compound | inhibition of growth at 10 µM [%]
3 | COc1cc(-c2nc3sc(-c4ccccc4)cn3n2)cc(OC)c1OC | 55

System: A498
Test: Growth inhibition of human A498 cells at 10 uM incubated for 48 hrs by sulforhodamine B assay relative to control
Format: functional
Conditions: A498, 48 h, read-out: GI

Row | Compound | inhibition of growth at 10 µM [%]
4 | COc1cc(-c2nc3sc(-c4ccccc4)cn3n2)cc(OC)c1OC | 29

System: U-251
Test: Growth inhibition of human U251 cells at 10 uM incubated for 48 hrs by sulforhodamine B assay relative to control
Format: functional
Conditions: U-251, 48 h, read-out: GI

Row | Compound | inhibition of growth at 10 µM [%]
5 | COc1cc(-c2nc3sc(-c4ccccc4)cn3n2)cc(OC)c1OC | 32

System: SNB-19
Test: Growth inhibition of human SNB19 cells at 10 uM incubated for 48 hrs by sulforhodamine B assay relative to control
Format: functional
Conditions: SNB-19, 48 h, read-out: GI

Row | Compound | inhibition of growth at 10 µM [%]
6 | COc1cc(-c2nc3sc(-c4ccccc4)cn3n2)cc(OC)c1OC | 10

System: SN12C
Test: Growth inhibition of human SN12C cells at 10 uM incubated for 48 hrs by sulforhodamine B assay relative to control
Format: functional
Conditions: read-out: GI

Row | Compound | inhibition of growth at 10 µM [%]
7 | COc1cc(-c2nc3sc(-c4ccccc4)cn3n2)cc(OC)c1OC | 19

System: SK-MEL-2
Test: Growth inhibition of human SK-MEL-2 cells at 10 uM incubated for 48 hrs by sulforhodamine B assay relative to control
Format: functional
Conditions: SK-MEL-2, 48 h, read-out: GI

Row | Compound | inhibition of growth at 10 µM [%]
8 | COc1cc(-c2nc3sc(-c4ccccc4)cn3n2)cc(OC)c1OC | 20

System: K562
Test: Growth inhibition of human K562 cells at 10 uM incubated for 48 hrs by sulforhodamine B assay relative to control
Format: functional
Conditions: K562, 48 h, read-out: GI

Row | Compound | inhibition of growth at 10 µM [%]
9 | COc1cc(-c2nc3sc(-c4ccccc4)cn3n2)cc(OC)c1OC | 39

System: MDA-MB-231
Test: Growth inhibition of human MDA-MB-231/ATCC cells at 10 uM incubated for 48 hrs by sulforhodamine B assay relative to control
Format: functional
Conditions: MDA-MB-231, 48 h, read-out: GI

Row | Compound | inhibition of growth at 10 µM [%]
10 | COc1cc(-c2nc3sc(-c4ccccc4)cn3n2)cc(OC)c1OC | 41

System: MOLT-4
Test: Growth inhibition of human MOLT4 cells at 10 uM incubated for 48 hrs by sulforhodamine B assay relative to control
Format: functional
Conditions: MOLT-4, 48 h, read-out: GI

Row | Compound | inhibition of growth at 10 µM [%]
11 | COc1cc(-c2nc3sc(-c4ccccc4)cn3n2)cc(OC)c1OC | 44

System: CCRF-CEM
Test: Growth inhibition of human CCRF-CEM cells at 10 uM incubated for 48 hrs by sulforhodamine B assay relative to control
Format: functional
Conditions: read-out: GI

Row | Compound | inhibition of growth at 10 µM [%]
12 | COc1cc(-c2nc3sc(-c4ccccc4)cn3n2)cc(OC)c1OC | 49

System: RXF 393
Test: Growth inhibition of human RXF393 cells at 10 uM incubated for 48 hrs by sulforhodamine B assay relative to control
Format: functional
Conditions: RXF 393, 48 h, read-out: GI

Row | Compound | inhibition of growth at 10 µM [%]
13 | COc1cc(-c2nc3sc(-c4ccccc4)cn3n2)cc(OC)c1OC | 17

System: MCF7
Test: Growth inhibition of human MCF7 cells at 10 uM incubated for 48 hrs by sulforhodamine B assay relative to control
Format: functional
Conditions: MCF7, 48 h, read-out: GI

Row | Compound | inhibition of growth at 10 µM [%]
14 | COc1cc(-c2nc3sc(-c4ccccc4)cn3n2)cc(OC)c1OC | 23

System: RPMI-8226
Test: Growth inhibition of human RPMI8226 cells at 10 uM incubated for 48 hrs by sulforhodamine B assay relative to control
Format: functional
Conditions: RPMI-8226, 48 h, read-out: GI

Row | Compound | inhibition of growth at 10 µM [%]
15 | COc1cc(-c2nc3sc(-c4ccccc4)cn3n2)cc(OC)c1OC | 42

System: HL-60(TB)
Test: Growth inhibition of human HL-60(TB) cells at 10 uM incubated for 48 hrs by sulforhodamine B assay relative to control
Format: functional
Conditions: HL-60, 48 h, read-out: GI

Row | Compound | inhibition of growth at 10 µM [%]
16 | COc1cc(-c2nc3sc(-c4ccccc4)cn3n2)cc(OC)c1OC | 37

System: NCI-H522
Test: Growth inhibition of human NCI-H522 cells at 10 uM incubated for 48 hrs by sulforhodamine B assay relative to control
Format: functional
Conditions: NCI-H522, 48 h, read-out: GI

Row | Compound | inhibition of growth at 10 µM [%]
17 | COc1cc(-c2nc3sc(-c4ccccc4)cn3n2)cc(OC)c1OC | 30

System: DU-145
Test: Growth inhibition of human DU145 cells at 10 uM incubated for 48 hrs by sulforhodamine B assay relative to control
Format: functional
Conditions: DU-145, 48 h, read-out: GI

Row | Compound | inhibition of growth at 10 µM [%]
18 | COc1cc(-c2nc3sc(-c4ccccc4)cn3n2)cc(OC)c1OC | 9

System: PANC-1
Test: Antiproliferative activity against human PANC1 cells after 48 hrs by propidium iodide staining-based fluorometric analysis
Format: functional, cell-based
Conditions: PANC-1, 48 h

Row | Compound | IC50 [µM]
19 | COc1cc(-c2nc3sc(-c4ccccc4)cn3n2)cc(OC)c1OC | 4.9

System: NCI-H460
Test: Antiproliferative activity against human H460 cells after 48 hrs by propidium iodide staining-based fluorometric analysis
Format: functional, cell-based
Conditions: NCI-H460, 48 h

Row | Compound | IC50 [µM]
20 | COc1cc(-c2nc3sc(-c4ccccc4)cn3n2)cc(OC)c1OC | 4.8

System: NCI-H226
Test: Growth inhibition of human NCI-H226 cells at 10 uM incubated for 48 hrs by sulforhodamine B assay relative to control
Format: functional
Conditions: NCI-H226, 48 h, read-out: GI

Row | Compound | inhibition of growth at 10 µM [%]
21 | COc1cc(-c2nc3sc(-c4ccccc4)cn3n2)cc(OC)c1OC | 23

System: SF-539
Test: Growth inhibition of human SF539 cells at 10 uM incubated for 48 hrs by sulforhodamine B assay relative to control
Format: functional
Conditions: SF-539, 48 h, read-out: GI

Row | Compound | inhibition of growth at 10 µM [%]
22 | COc1cc(-c2nc3sc(-c4ccccc4)cn3n2)cc(OC)c1OC | 15

System: HT-29
Test: Growth inhibition of human HT-29 cells at 10 uM incubated for 48 hrs by sulforhodamine B assay relative to control
Format: functional
Conditions: HT-29, 48 h, read-out: GI

Row | Compound | inhibition of growth at 10 µM [%]
23 | COc1cc(-c2nc3sc(-c4ccccc4)cn3n2)cc(OC)c1OC | 18

System: KM12
Test: Growth inhibition of human KM12 cells at 10 uM incubated for 48 hrs by sulforhodamine B assay relative to control
Format: functional
Conditions: KM12, 48 h, read-out: GI

Row | Compound | inhibition of growth at 10 µM [%]
24 | COc1cc(-c2nc3sc(-c4ccccc4)cn3n2)cc(OC)c1OC | 14

System: EKVX
Test: Growth inhibition of human EKVX cells at 10 uM incubated for 48 hrs by sulforhodamine B assay relative to control
Format: functional
Conditions: read-out: GI

Row | Compound | inhibition of growth at 10 µM [%]
25 | COc1cc(-c2nc3sc(-c4ccccc4)cn3n2)cc(OC)c1OC | 63

System: NCI-H322M
Test: Growth inhibition of human NCI-H322M cells at 10 uM incubated for 48 hrs by sulforhodamine B assay relative to control
Format: functional
Conditions: read-out: GI

Row | Compound | inhibition of growth at 10 µM [%]
26 | COc1cc(-c2nc3sc(-c4ccccc4)cn3n2)cc(OC)c1OC | 7

System: SW-620
Test: Growth inhibition of human SW620 cells at 10 uM incubated for 48 hrs by sulforhodamine B assay relative to control
Format: functional
Conditions: SW-620, 48 h, read-out: GI

Row | Compound | inhibition of growth at 10 µM [%]
27 | COc1cc(-c2nc3sc(-c4ccccc4)cn3n2)cc(OC)c1OC | 6

System: COLO 205
Test: Growth inhibition of human COLO205 cells at 10 uM incubated for 48 hrs by sulforhodamine B assay relative to control
Format: functional
Conditions: COLO 205, 48 h, read-out: GI

Row | Compound | inhibition of growth at 10 µM [%]
28 | COc1cc(-c2nc3sc(-c4ccccc4)cn3n2)cc(OC)c1OC | 15

System: SF-295
Test: Growth inhibition of human SF295 cells at 10 uM incubated for 48 hrs by sulforhodamine B assay relative to control
Format: functional
Conditions: SF-295, 48 h, read-out: GI

Row | Compound | inhibition of growth at 10 µM [%]
29 | COc1cc(-c2nc3sc(-c4ccccc4)cn3n2)cc(OC)c1OC | 16

System: MDA-MB-435
Test: Growth inhibition of human MDA-MB-435 cells at 10 uM incubated for 48 hrs by sulforhodamine B assay relative to control
Format: functional
Conditions: MDA-MB-435, 48 h, read-out: GI

Row | Compound | inhibition of growth at 10 µM [%]
30 | COc1cc(-c2nc3sc(-c4ccccc4)cn3n2)cc(OC)c1OC | 16

System: ACHN
Test: Growth inhibition of human ACHN cells at 10 uM incubated for 48 hrs by sulforhodamine B assay relative to control
Format: functional
Conditions: read-out: GI

Row | Compound | inhibition of growth at 10 µM [%]
31 | COc1cc(-c2nc3sc(-c4ccccc4)cn3n2)cc(OC)c1OC | 15

System: NCI-H23
Test: Growth inhibition of human NCI-H23 cells at 10 uM incubated for 48 hrs by sulforhodamine B assay relative to control
Format: functional
Conditions: NCI-H23, 48 h, read-out: GI

Row | Compound | inhibition of growth at 10 µM [%]
32 | COc1cc(-c2nc3sc(-c4ccccc4)cn3n2)cc(OC)c1OC | 17

Target: Epidermal growth factor receptor (Homo sapiens, UniProt P00533)
Test: Inhibition of His6-tagged recombinant EGFR cytoplasmic domain (645 to 1186 residues) (unknown origin) expressed in baculovirus infected Sf9 insect cells preincubated for 10 mins followed by ATP-MgCl2 addition and measured after 1 hr by DELFIA/time-resolved fluorometric analysis
Conditions: not given

Sequence of Epidermal growth factor receptor (P00533 whole entry, the tested form may be a part): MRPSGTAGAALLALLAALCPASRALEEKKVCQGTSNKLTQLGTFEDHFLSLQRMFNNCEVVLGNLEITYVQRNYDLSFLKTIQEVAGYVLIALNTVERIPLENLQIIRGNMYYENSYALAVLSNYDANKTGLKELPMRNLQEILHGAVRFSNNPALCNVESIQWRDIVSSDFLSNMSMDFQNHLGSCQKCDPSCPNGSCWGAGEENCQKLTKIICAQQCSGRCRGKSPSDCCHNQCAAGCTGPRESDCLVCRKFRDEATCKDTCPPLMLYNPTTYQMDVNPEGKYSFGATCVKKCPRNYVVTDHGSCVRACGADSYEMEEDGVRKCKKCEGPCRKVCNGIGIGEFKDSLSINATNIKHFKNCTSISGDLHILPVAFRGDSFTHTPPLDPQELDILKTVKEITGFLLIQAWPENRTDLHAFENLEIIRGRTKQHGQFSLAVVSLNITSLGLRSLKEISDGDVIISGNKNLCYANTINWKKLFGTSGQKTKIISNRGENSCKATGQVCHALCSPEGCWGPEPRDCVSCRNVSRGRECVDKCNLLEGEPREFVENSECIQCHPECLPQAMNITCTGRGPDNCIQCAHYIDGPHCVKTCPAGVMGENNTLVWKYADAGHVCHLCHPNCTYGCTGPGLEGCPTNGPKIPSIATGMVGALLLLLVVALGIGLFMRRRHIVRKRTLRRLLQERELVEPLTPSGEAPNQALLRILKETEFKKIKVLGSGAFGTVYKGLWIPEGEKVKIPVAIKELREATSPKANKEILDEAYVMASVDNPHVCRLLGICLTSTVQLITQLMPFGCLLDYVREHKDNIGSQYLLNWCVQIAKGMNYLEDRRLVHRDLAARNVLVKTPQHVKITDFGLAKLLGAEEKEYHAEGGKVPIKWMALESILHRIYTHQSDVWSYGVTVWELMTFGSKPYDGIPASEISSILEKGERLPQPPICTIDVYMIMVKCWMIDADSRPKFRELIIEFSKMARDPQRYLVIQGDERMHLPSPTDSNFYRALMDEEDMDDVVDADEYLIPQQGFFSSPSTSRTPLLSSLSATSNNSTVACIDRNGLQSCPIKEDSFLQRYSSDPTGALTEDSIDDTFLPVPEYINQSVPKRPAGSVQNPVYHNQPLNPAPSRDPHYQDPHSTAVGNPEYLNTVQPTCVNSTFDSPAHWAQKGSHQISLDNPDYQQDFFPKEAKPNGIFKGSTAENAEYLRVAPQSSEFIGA

Row | Compound | IC50 [µM]
33 | COc1cc(-c2nc3sc(-c4ccccc4)cn3n2)cc(OC)c1OC | 2.8

System: HCT-116
Test: Growth inhibition of human HCT116 cells at 10 uM incubated for 48 hrs by sulforhodamine B assay relative to control
Format: functional
Conditions: HCT-116, 48 h, read-out: GI

Row | Compound | inhibition of growth at 10 µM [%]
34 | COc1cc(-c2nc3sc(-c4ccccc4)cn3n2)cc(OC)c1OC | 40
